Where a name gives a salt, the structure may show the parent alone.
Experiments:
Test in all cases: Herbicidal activity, spray of diphenyl ether with N-phosphonomethylglycine derivative (Test Examples 6 to 10)
Type in all cases: in vivo
Parameters in all cases: key: 0 means the state where the plants are as sound as before the application of the active compound; 1, 2, 3 and 4 mean varying degrees of the enfeebled state of the plants between 0 and 5; 1, 2, 3 and 4 mean varying degrees of the enfeebled state of the plants between 0 and 5; 1, 2, 3 and 4 mean varying degrees of the enfeebled state of the plants between 0 and 5; 1, 2, 3 and 4 mean varying degrees of the enfeebled state of the plants between 0 and 5; 5 is the state where the plants are withered or killed by application of the active compound
Details in all cases: Application 0.375 Kg/ha (117) alone
[1] = test system: Chenopodium album var. centrorubrum
Protocol: (§1) In these examples, all parts means parts by weight, unless otherwise noted. The herbicidal activity was evaluated on a scale of 6 degrees. In other words, 0 means the state where the plants are as sound as before the application of the active compound, while 5 is the state where the plants are withered or killed by application of the active compound, and 1, 2, 3 and 4 mean varying degrees of the enfeebled state of the plants between 0 and 5.
(§2) In each run, the diphenyl ether derivatives and the N-phosphonomethylglycine derivatives shown in Table 3 (in the indicated mixing ratios) was dissolved in 16 parts by volume of a mixture of water and acetone (1 : 1 by volume; containing 0.05 % of a nonionic surfactant, Sorpol-2680) in the indicated mixing ratio, respectively, to prepare spray solutions.
(§3) The plants tested were grown in vinyl resin pots (diameter 10 cm) filled with soil in a green house for 2 to 3 weeks after germination from seeds or tubers.
(§4) The spray solution was applied to the plants so that the total volume sprayed became 4 cc/100 cm², and the herbicidal activity was examined.
(§5) The alphabetical symbols in Tables 2 and 3 represent the following plants, respectively: a: Digitaria adscendens b: Setaria viridis c: Sorghum halepense d: Chenopodium album var. centrorubrum e: Amaranthus mangostanus f: Astragalus sinicus g: Abutilon theophrosti h: Solanum nigrum i: Xanthium strumarium j: Soybean; Glycine max k: Corn; Zea mays Table 2

[2] = test system: Corn; Zea mays
Protocol: as §1, §2, §3, §4, §5

[3] = test system: Setaria viridis
Protocol: as §1, §2, §3, §4, §5

[4] = test system: Solanum nigrum
Protocol: as §1, §2, §3, §4, §5

[5] = test system: Amaranthus mangostanus
Protocol: as §1, §2, §3, §4, §5

[6] = test system: Digitaria adscendens
Protocol: as §1, §2, §3, §4, §5

[7] = test system: Astragalus sinicus
Protocol: as §1, §2, §3, §4, §5

O=C(O)CNCP(=O)(O)O [Compound (117), N-phosphonomethylglycine isopropylammonium salt]
herbicidal activity, Plants d ([1]; 3 days after treatment): 0
herbicidal activity, Plants d ([1]; 7 days after treatment): 0
herbicidal activity, Plants d ([1]; 14 days after treatment): 1
herbicidal activity, Plants k ([2]; 3 days after treatment): 0
herbicidal activity, Plants k ([2]; 7 days after treatment): 0
herbicidal activity, Plants k ([2]; 14 days after treatment): 0
herbicidal activity, Plants b ([3]; 3 days after treatment): 0
herbicidal activity, Plants b ([3]; 7 days after treatment): 0
herbicidal activity, Plants b ([3]; 14 days after treatment): 1
herbicidal activity, Plants h ([4]; 3 days after treatment): 0
herbicidal activity, Plants h ([4]; 7 days after treatment): 0
herbicidal activity, Plants h ([4]; 14 days after treatment): 0
herbicidal activity, Plants e ([5]; 3 days after treatment): 0
herbicidal activity, Plants e ([5]; 7 days after treatment): 0
herbicidal activity, Plants e ([5]; 14 days after treatment): 0
herbicidal activity, Plants a ([6]; 3 days after treatment): 3
herbicidal activity, Plants a ([6]; 7 days after treatment): 1
herbicidal activity, Plants a ([6]; 14 days after treatment): 3
herbicidal activity, Plants f ([7]; 3 days after treatment): 0
herbicidal activity, Plants f ([7]; 7 days after treatment): 0
herbicidal activity, Plants f ([7]; 14 days after treatment): 0
